Test results: PubChem BioAssay (NCI)
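Cultured in 96-well plates, cells were exposed to test compound for 48 hours across five concentrations. The concentration for 50% growth inhibition is given as GI50. TGI marks complete inhibition of growth.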 Where a SMILES comes first, the peptide text is derived from it. The star is where a group is joined. Cbz = O=C(OCc1ccccc1)*; NHNH2 = NN*

Experiments:
Assay in all cases: inhibition of tumour cell growth, NCI panel, 48 h
UACC-62 melanoma = system: UACC-62 melanoma
SW-620 colon = system: SW-620 colon
M14 melanoma = system: M14 melanoma
SF-268 CNS = system: SF-268 CNS
OVCAR-4 ovarian = system: OVCAR-4 ovarian
HOP-62 NSCLC = system: HOP-62 NSCLC
UO-31 renal = system: UO-31 renal
NCI-H23 lung = system: NCI-H23 lung
OVCAR-3 ovarian = system: OVCAR-3 ovarian
SR leukemia = system: SR leukemia

Compound	TGI (UACC-62 melanoma) [µM]	TGI (SW-620 colon) [µM]	TGI (M14 melanoma) [µM]	TGI (SF-268 CNS) [µM]	TGI (OVCAR-4 ovarian) [µM]	TGI (HOP-62 NSCLC) [µM]	TGI (UO-31 renal) [µM]	TGI (NCI-H23 lung) [µM]	TGI (OVCAR-3 ovarian) [µM]	TGI (SR leukemia) [µM]	GI50 (OVCAR-4 ovarian) [µM]	GI50 (UACC-62 melanoma) [µM]	GI50 (SW-620 colon) [µM]	GI50 (M14 melanoma) [µM]	GI50 (SF-268 CNS) [µM]	GI50 (OVCAR-3 ovarian) [µM]	GI50 (SR leukemia) [µM]	GI50 (UO-31 renal) [µM]	GI50 (NCI-H23 lung) [µM]
CC(C)(C)C1CCC2(CC1)c1[nH]c3ccccc3c1C1(CCC(C(C)(C)C)CC1)c1[nH]c3ccccc3c12 (stereo unspecified)	> 100	> 100	> 100	> 100	> 100	> 100	> 100	> 100											
CC(=O)OC/C=C(/C=C/CNC1CCCCC1)OC(C)=O	33.2	29.8	21.2	35.5	35.7	31.1		29.9	37.7	35.7									
O=C(N/N=C/c1ccco1)c1cc(I)cc(I)c1O	> 50	> 50	> 50	> 50	> 50		> 50	> 50											
COc1c(Br)cc(CC(N)=O)c(O)c1Br	> 100	> 100		> 100	> 100	> 100	> 100	> 100	> 100	> 100									
O=C(CSc1n[nH]c(=O)[nH]c1=O)NNC(=O)c1cccc2nc3ccccc3nc12	> 100	> 100	> 100	> 100	> 100	> 100		> 100	> 100	> 100									
O=[N+]([O-])c1ccc(NC(=S)N=Nc2c(O)[nH]c3ccc(Br)cc23)cc1	18.3	30		26.1	21.1	30.4		12.9	21.8	42.7									
CNC(=O)N(CCC#N)[C@H]1CCCC[C@@H]1N(C(=O)NC)c1ccccc1	> 100	> 100	> 100		> 100	> 100	> 100	> 100	> 100	> 100									
Nc1ccc2[nH]c(-c3cccc(Cl)c3)cc(=O)c2c1	> 100	> 100	> 100		> 100	> 100		> 100			> 100								
COc1ccc2c(c1)CN1C(=N2)CSC1c1ccccc1Cl (stereo unspecified)	34.6	41.7	35.4	76.4	45.1	> 100	38.3	3.45		27									
O=C(Cc1ccc([N+](=O)[O-])cc1)OCC#CCOC(=O)Cc1ccc([N+](=O)[O-])cc1	> 10	> 10	> 10	> 10	> 10		> 10	> 10	> 10	> 10									
Cc1cc2[nH]c3c(C#N)c4c(c(=O)n3c2cc1C)CCCC4	> 100	> 100	27.6	> 100	> 100		> 100	> 100	> 100										
Cc1cn(C(C)OCCN2C(=O)c3ccccc3C2=O)c(=O)[nH]c1=O (stereo unspecified)	> 100	> 100	> 100		> 100	> 100	> 100	> 100	> 100	> 100									
CCOC(=O)C1=C(OC(OCC)C(CC)[Se]c2ccccc2)CCCC1 (stereo unspecified)	62.9		34.2	41.6	33	> 100	> 100	25.5	65.7										
O=C1C=C(c2ccccc2)O/C1=C/C(=O)c1ccc(Cl)cc1	28.5	27.1	40.3	54.6	32.9	85.3	38.9		31.9										
CN(C)CCn1c(=O)c2ccc(NCCCN(C)CCCNc3ccc4c(=O)n(CCN(C)C)c(=O)n5c6ccc([N+](=O)[O-])cc6c(=O)c3c45)c3c(=O)c4cc([N+](=O)[O-])ccc4n(c1=O)c23	0.318		0.753	0.733	0.0944	0.842	0.705	0.171	1.31										
Cc1cn([C@@H]2C[C@H]2CO)c(=O)[nH]c1=O	> 100	> 100	> 100	> 100	> 100	> 100	> 100	> 100		> 100									
O=C1C=CC(=O)c2c(O)c(NCCc3ccc(O)cc3)c(Cl)c(O)c21	> 10	> 10	> 10	> 10	> 10	> 10		> 10	> 10										
COC(=O)C1=Nc2c(C)nn(-c3ccccc3)c2N=C(c2ccc([N+](=O)[O-])cc2)C1	> 10	> 10	> 10	> 10	> 10	> 10		> 10	> 10	> 10									
COC(=O)c1ccc(C=Nc2ccc(S(N)(=O)=O)cc2)cc1	> 100		> 100	> 100	> 100	> 100	> 100		> 100	> 100									
O=c1c(-c2ccc(Cl)cc2)nnc2n(Cc3ccccc3)c3ccccc3n12		> 100	> 100	> 100	30.7	44.9	> 100	> 100		> 100									
Nc1c(C(=O)c2ccc(Cl)cc2)[nH]c(NCc2ccccc2)c1C(=S)Nc1ccccc1	21	3.63	3.54	8.44	4.15	12.9	3.02	5.95	20.2										
CCC(C)C(=O)OC1CC2(C)C(c3ccoc3)OC(=O)CC23OC2(C)OC34C(OC(=O)C(C)C)C3(O)C(OC(=O)C5(C)OC5C)C5(C)CC3(O)C(C)(C5CC(=O)OC)C14O2 (stereo unspecified)	> 100	> 100	> 100	> 100	> 100		> 100	> 100		95									

Compound	TGI (UACC-62 melanoma) [µM]	TGI (SW-620 colon) [µM]	TGI (M14 melanoma) [µM]	TGI (SF-268 CNS) [µM]	TGI (OVCAR-4 ovarian) [µM]	TGI (HOP-62 NSCLC) [µM]	TGI (UO-31 renal) [µM]	TGI (NCI-H23 lung) [µM]	TGI (OVCAR-3 ovarian) [µM]	TGI (SR leukemia) [µM]	GI50 (OVCAR-4 ovarian) [µM]	GI50 (UACC-62 melanoma) [µM]	GI50 (SW-620 colon) [µM]	GI50 (M14 melanoma) [µM]	GI50 (SF-268 CNS) [µM]	GI50 (OVCAR-3 ovarian) [µM]	GI50 (SR leukemia) [µM]	GI50 (UO-31 renal) [µM]	GI50 (NCI-H23 lung) [µM]
COC(=O)Cc1c([C@H]2[C@H](CC(=O)OC)c3ccccc3N2C(C)=O)[nH]c2ccccc12	> 100	> 100	> 100	> 100		> 100	> 100	> 100	> 100										
CC(=O)OCC(OC(C)=O)C1C[C@H]2O[C@@H]3[C@H](C[C@H]2O1)O[C@@]1(C[C@@H]3C)C[C@H](C)[C@@H]2O[C@]3(C[C@@H]2O1)C[C@H]1O[C@H]2[C@H](C)[C@H]4OC(=O)CC5CC[C@H]6OC7[C@H]8O[C@]9(CC[C@H]%10CC(O)(CO)[C@H](CC[C@H]%11C[C@@H](C)C(O)(CO)C(C[C@@H]4O[C@H]2C[C@H]1O3)O%11)O%10)CC8O[C@@H]7[C@@H](O9)[C@H]6O5 (stereo partly specified)	> 1	> 1	> 1	> 1	> 1	> 1	> 1		> 1	> 1									
COCC1OC(N2C(=O)NC(=O)[C@@H]3C=C4CCCCC4=C[C@@H]32)C(OC)C1OC (stereo partly specified)	> 100	> 100	> 100	> 100	> 100	> 100	> 100		> 100	> 100									
CCOC(=O)/C(C#N)=N\Nc1ccc(-n2c(C)nc3ccccc3c2=O)cc1	> 100	> 100	> 100	> 100		> 100	> 100	> 100	82.4	> 100									
CCC(=O)Oc1c2ccsc2c(OC(=O)CC)c2ccsc12	0.439	2.33	0.305	2.29	2.39	2.95	1.45	0.364		0.806									
Cc1cc2ncc3c(=O)n(NS(=O)(=O)c4ccc(N)cc4)ccc3n2n1	> 100	> 100	> 100	> 100	> 100	> 100	> 100	> 100	> 100										
OC1(c2ccc(Cl)cc2)c2ccc3ccccc3c2C2=N[C@H]3CCCC[C@@H]3N21 (stereo partly specified)	41.4	> 100	23	> 100	> 100	11.5	> 100	> 100	21.9										
NC(=O)c1cc2ccccc2o/c1=N/O	> 100	> 100	> 100	> 100		> 100	> 100	> 100	> 100	> 100									
COC(=O)C1CC2(c3ccccc3)C(=O)c3ccccc3N2O1 (stereo unspecified)	> 100	> 100	> 100	> 100	> 100	> 100		> 100	> 100	65.3									
O=C(O)C(CO)NC(=O)n1c2ccccc2c2ccccc21 (stereo unspecified)	> 100	> 100		> 100		> 100		> 100	> 100	> 100									
Cc1c2ncccc2cc2oc3ccccc3c(=O)c12	> 100	> 100		> 100	> 100	> 100	> 100	> 100	> 100	> 100									
CC1(C)OCC2OC3([C@H]4OC(C)(C)O[C@@H]4CO)OC(C)(C)OC3C2O1 (stereo partly specified)	> 100	> 100	> 100		> 100	> 100	> 100	> 100	> 100	> 100									
O=C(Nc1cccc(O)c1)C(=O)C(C(=O)c1ccccc1F)C1OC(=O)c2ccccc21 (stereo unspecified)	37.8	> 100	> 100	74.7	> 100	> 100	96.8	88.2		83.7									
Clc1ccc(OCc2nnc(CCCCCCCCc3nnc(COc4ccc(Cl)cc4)n3Nc3ccccc3)n2Nc2ccccc2)cc1	38.8	> 100	> 38.3	> 100	> 100	> 100	> 95.1	> 100	39.9										
C=CCOCCCCC(C(C)=O)C(=O)OC (stereo unspecified)	> 100	> 100	> 100	> 100	> 100		> 100	> 100	> 100	> 100									
N#Cc1c(-c2ccc(F)cc2)nc(N/N=C/c2c[nH]c3ccccc23)nc1N1CCOCC1	27.4	4.69	4.87	> 100	62.8		55.2	92.7	35	24	16.1	11.4	1.58	2.1	17	11.5	0.215	1.76	21.2
CSc1nc2c(c(=O)n1C)N=C(c1ccccc1)[C@H](C(CC(=O)c1ccccc1)c1ccccc1)C(c1ccccc1)N2 (stereo partly specified)	> 100	> 100	> 100		> 100	> 100	> 100	> 100	> 100	> 100									
Cc1nc(C)c(Cc2ccccc2)o1	> 100	> 100	> 100	> 100	> 100	> 100	> 100	> 100	> 100										
COC(=O)CC(NC(=O)OCc1ccccc1)C(=O)NC(CC(=O)OC)C(=O)NC(CC(=O)OC)C(=O)NC(CC(=O)OC)C(=O)NC(CC(=O)OC)C(=O)NC(CC(=O)OC)C(=O)NN (stereo unspecified) (Cbz-D(OMe)D(OMe)D(OMe)D(OMe)D(OMe)D(OMe)-NHNH2; configuration not given here)	> 100	> 100	> 100	> 100	> 100	> 100	> 100			> 100									
O=C(CC1=NCCN1)c1ccccc1	> 750	> 750		> 750	> 750	> 750	> 750	> 750	> 750										
COc1ccc(Nc2nc3c([nH]2)c(=O)n(C)c(=O)n3C)cc1	> 10	> 10	> 10	> 10	> 10	> 10		> 10		> 10									
